Values joined by “and” are separate entries in the source; they are usually repeats but may differ in a detail not shown here. Equal values may be shown once.
What was measured:
[1] = system: HeLa; conditions: bulk resorufin, single well, 28.5 h, 10 µM, Bulk resorufin fluorescence
[2] = in vitro; conditions: human, hela cells, % viability
[3] = system: T1, C. trachomatis L2/434/Bu expressing GFP (CTL2-GFP); assay: microbe, parasite or virus in culture; set-up: C. trachomatis total inclusion area by high-content imaging, normalised to DMSO; conditions: Chlamydia trachomatis, HeLa, 28.5 h; total inclusion area; read-out: % of control remaining
T1 construct: L2/434/Bu GFP intracellular growth in HeLa cells
How it was run: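 First, bulk GFP and resorufin signals were measured in compound-treated infected cultures. Cells were next fixed and stained with Hoechst. Finally, high-content imaging quantified chlamydial inclusions (area, number) and host nuclei, and MICs were calculated.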

[4] = system: T2, CTL2-GFP (C. trachomatis L2/434/Bu, GFP-expressing); assay: microbe, parasite or virus in culture; set-up: Intracellular C. trachomatis growth in HeLa cells, bulk GFP fluorescence relative to DMSO; conditions: Chlamydia trachomatis, HeLa, 28.5 h; bulk GFP, mean of 2; read-out: % of control remaining
T2 construct: L2/434/Bu, GFP-expressing
Experimental: MICs were calculated as described above.

[5] = in vitro; set-up: Viability of infected HeLa host cells, resazurin conversion, bulk resorufin fluorescence relative to DMSO; conditions: human, hela cells; bulk resorufin, mean of 2

Row | Compound | % viability [1] | other results
1 | Cc1ccc(S(=O)(=O)Nc2ccsc2C(=O)N2CCOCC2)cc1 [CBK004570] | 107% | viability at 28.5 h, 10 µM [2]: 99.9%
2 | O=C(CC1SC(NC2CC3C=CC2C3)=NC1=O)Nc1ccccc1Cl (stereo not drawn) [CBK005795] | 109% and 72.5% | 
3 | COc1ccc(-c2nc(SCc3ccccc3)[nH]c(=O)c2C#N)cc1 [CBK007169] | 107% and 84.8% | 
4 | CNc1cc(NS(=O)(=O)c2ccc(N)cc2)nc(NC)n1 [CBK011865] | 93% | 
5 | O=C(O)CCc1nn2c(-c3ccccc3)c(-c3ccccc3)nc2[nH]c1=O [CBK013564] | 94.1% | viability at 28.5 h, 10 µM [2]: 86.5%
6 | CC(NC(=O)N(Cc1ccccc1C(F)(F)F)CC(C)(C)CN)c1ccccc1 (stereo not drawn) [CBK026834C] | 118% and 97.8% | 
7 | O=C(O)CCC(=O)Nc1ccc(Br)cn1 [CBK056920] | 89.9% and 110% | 
8 | Nc1cc2cccnc2c(-c2cc(F)cc(F)c2)n1 [CBK061908] | 80.4% and 85.8% and 103% | 
9 | O=C1NCCN1CCNS(=O)(=O)c1csc2ccccc12 [CBK062602] | 117% and 90% | 
10 | CN(C(=O)CC1SC(NCC2CCCCC2)=NC1=O)c1ccccc1 (stereo not drawn) [CBK067371] | 87.9% and 110% | 
11 | COC(=O)Cn1nnc(-c2ccc(C)cc2)n1 [CBK068195] | 123% and 93.2% | 
12 | CC(C)C(=O)Nc1cc2cccnc2c(-c2cccc(C(F)(F)F)c2)n1 [CBK081266] | 125% and 100% | 
13 | COc1ccc(C(C)C)cc1-c1cnc2ncccc2c1N [CBK083686] | 108% and 81.3% | 
14 | CCOC(=O)CN1CCC(Oc2nccnc2OCCN2C(=O)CCC2=O)CC1 [CBK084348] | 120% and 80% | 
15 | c1ccc(CN2CCC(Oc3cncc(OCCN4CCOCC4)n3)C2)cc1 (stereo not drawn) [CBK084478] | 107% and 84% | 
16 | O=C(Nc1cccnc1)c1cnc2cc(C(F)(F)F)ccc2c1O [CBK107474T] | 88% | 
17 | O=C(Nc1cc(-c2ccncc2)c[nH]c1=O)c1ccc(Cl)c(Cl)c1 [CBK115868] | 94.1% and 119% | 
18 | COc1cc2c(cc1OC)CN(C(=O)c1ccc3occc3c1)CC2 [CBK122746] | 66.2% and 36.8% | 
19 | O=C(c1cccc(C(F)(F)F)c1)N1CCCC2(CCN(C(=O)c3ccoc3)C2)C1 (stereo not drawn) [CBK131616] | 116% and 88% | 
20 | Cc1onc(-c2ccccc2)c1CNC(=O)C1COc2ccccc2O1 (stereo not drawn) [CBK144086] | 104% and 80.3% | 
21 | O=c1cc(O)c2ccccc2n1Cc1ccccc1 [CBK218877] | 107% and 84.4% | 
22 | CC(Oc1ccccc1)C(=O)Nc1ccccc1C(=O)O (stereo not drawn) [CBK262854] | 109% and 87% | 
23 | CCOC(=O)c1cnc2c(Cl)cccc2c1NCCN1CCOCC1 [CBK263919] | 88.1% and 109% | 
24 | COc1cccc(C(=O)/C=C\Nc2ccc(S(=O)(=O)Nc3onc(C)c3C)cc2)c1 [CBK264206] |  | activity at 1 µM [3]: 68.5%; activity at 5 µM [3]: 28.9%; activity at 10 µM [3]: 19%; activity at 1 µM [4]: 83.7%; activity at 5 µM [4]: 25.4%; activity at 10 µM [4]: 8.04%; viability at 28.5 h, 1 µM [5]: 106%; viability at 28.5 h, 5 µM [5]: 104%; viability at 28.5 h, 10 µM [5]: 114%; viability at 28.5 h, 10 µM [2]: 93.4%
25 | Cc1noc(NS(=O)(=O)c2ccc(N/C=C\C(=O)c3cccnc3)cc2)c1C [CBK264285] |  | activity at 1 µM [3]: 69.7%; activity at 5 µM [3]: 26.3%; activity at 10 µM [3]: 17.9%; activity at 1 µM [4]: 72.6%; activity at 5 µM [4]: 13.6%; activity at 10 µM [4]: 11.8%; viability at 28.5 h, 1 µM [5]: 106%; viability at 28.5 h, 5 µM [5]: 103%; viability at 28.5 h, 10 µM [5]: 104%; viability at 28.5 h, 10 µM [2]: 102%
